Data on 25 compounds can be found in PubChem BioAssay AID256 (DTP/NCI, 2004).

“And” between values parts separate entries of the source, which are not always exact repeats. Identical values can stand only once. Toxic doses and inconclusive results are not listed.

The experiment deals with CD2F1 mice, L1210 leukemia ip, survival T/C. Description: NCI In Vivo Anticancer Drug Screen. Data for tumor model L1210 Leukemia (intraperitoneal) in CD2F1 (CDF1) mice. The note with it: endpoint: mean survival time, higher = longer survival. The procedure, abridged: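 Mice carrying a transplanted tumor received test compound or vehicle alone. The value is the measurement in the treated group divided by that in the vehicle-treated control group.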

Setting [1] is: dose: 100.0 mg/kg/injection, schedule: Q01DX009 (ip), vehicle: saline with Tween-80.
[2] abbreviates: dose: 200.0 mg/kg/injection, schedule: Q01DX009 (ip), vehicle: saline with Tween-80.
Where [3] appears, read: dose: 400.0 mg/kg/injection, schedule: Q01DX009 (ip), vehicle: saline with Tween-80.
[4] abbreviates: dose: 100.0 mg/kg/injection, schedule: Q04DX003 (ip), vehicle: saline with Tween-80.
The mark [5] stands for this setting: dose: 200.0 mg/kg/injection, schedule: Q04DX003 (ip), vehicle: saline with Tween-80.
[6] abbreviates: dose: 400.0 mg/kg/injection, schedule: Q04DX003 (ip), vehicle: saline with Tween-80.
Setting [7] is: dose: 100.0 mg/kg/injection, schedule: Q01DX001 (ip), vehicle: saline with Tween-80.
Where [8] appears, read: dose: 12.5 mg/kg/injection, schedule: Q01DX009 (ip), vehicle: water.
[9] abbreviates: dose: 25.0 mg/kg/injection, schedule: Q01DX009 (ip), vehicle: water.
Where [10] appears, read: dose: 50.0 mg/kg/injection, schedule: Q01DX009 (ip), vehicle: water.
[11] abbreviates: dose: 100.0 mg/kg/injection, schedule: Q01DX009 (ip), vehicle: water.

Take `O=[N+]([O-])c1ccc(N2CCCCC2)c([N+](=O)[O-])c1`: the T/C under setting [1] is 96 % of control, the T/C under setting [2] is 98 % of control and the T/C under setting [3] is 95 % of control.
Take `Nc1ncnc2nc(-c3ccc(C[P+](c4ccccc4)(c4ccccc4)c4ccccc4)cc3)[nH]c12`: the T/C under setting [4] is 101 % of control, the T/C under setting [5] is 95 % of control and the T/C under setting [6] is 101 % of control.
In the case of `O=Cc1cc(Cl)c(O)c(Cl)c1`, the T/C was 94 % of control (dose: 100.0 mg/kg/injection, schedule: Q04DX003 (ip), vehicle: Klucel (hydroxypropylcellulose) (HPC)) and 100 % of control (dose: 200.0 mg/kg/injection, schedule: Q04DX003 (ip), vehicle: Klucel (hydroxypropylcellulose) (HPC)).
Turning to `O=C(Cc1cccc2ccccc12)N/N=C/c1ccc2c(c1)CCC2`, the T/C is 89 % of control under setting [4], 95 % of control under setting [5] and 95 % of control under setting [6].
Turning to `CCOC(=O)c1c(NC(C)=O)sc2c1CCCC2`, the T/C is 97 % of control under setting [4] and 106 % of control under setting [5].
`C1CCC(CCC2CCCC[N-]2)[N-]C1.[I][Co][I]` (centres undefined): the T/C by setting is: (dose: 25.0 mg/kg/injection, schedule: Q01DX001 (ip), vehicle: saline with Tween-80) 95 % of control; (dose: 50.0 mg/kg/injection, schedule: Q01DX001 (ip), vehicle: saline with Tween-80) 86 % of control; under setting [7], 123 % of control; (dose: 100.0 mg/kg/injection, schedule: Q01DX001 (ip), vehicle: saline) 103 % of control.
`COCCCNC(=O)C1=CCCN(C)C1`: the T/C (dose: 100.0 mg/kg/injection, schedule: Q04DX003 (ip), vehicle: saline) is 95 % of control; the T/C (dose: 200.0 mg/kg/injection, schedule: Q04DX003 (ip), vehicle: saline) was 96 % of control; the T/C (dose: 400.0 mg/kg/injection, schedule: Q04DX003 (ip), vehicle: saline) is 94 % of control.
As for `O=C(O)c1ccccc1C(=O)NCCc1c[nH]c2ccccc12`, the T/C under setting [1] is 104 % of control; the T/C under setting [4] was 96 % of control; the T/C under setting [2] is 96 % of control; the T/C under setting [5] is 96 % of control; the T/C under setting [3] is 102 % of control; the T/C under setting [6] was 95 % of control.
Take `CC(NC(=O)C(CSC(c1ccccc1)(c1ccccc1)c1ccccc1)NC(c1ccccc1)(c1ccccc1)c1ccccc1)C(=O)O` (centres undefined): for the setting “dose: 150.0 mg/kg/injection, schedule: Q01DX001 (ip), vehicle: saline”, the T/C is 96 % of control.
Consider `Cc1ccccc1C[P+](c1ccccc1)(c1ccccc1)c1ccccc1`, for which the T/C was 88 % of control (dose: 1.0 mg/kg/injection, schedule: Q01DX009 (ip), vehicle: saline); 96 % of control (dose: 2.0 mg/kg/injection, schedule: Q01DX009 (ip), vehicle: saline); 92 % of control (dose: 4.0 mg/kg/injection, schedule: Q01DX009 (ip), vehicle: saline); 108 % of control (dose: 8.0 mg/kg/injection, schedule: Q01DX009 (ip), vehicle: saline).
As for `C=CCNC(=S)NCCCCCCCCCCCCCCCCCC`, the T/C (dose: 12.5 mg/kg/injection, schedule: Q01DX009 (ip), vehicle: saline with Tween-80) is 98 % of control; the T/C (dose: 25.0 mg/kg/injection, schedule: Q01DX009 (ip), vehicle: saline with Tween-80) is 98 % of control; the T/C (dose: 50.0 mg/kg/injection, schedule: Q01DX009 (ip), vehicle: saline with Tween-80) was 104 % of control.
As to `N#Cc1nc2c(nc1N)CCCCCCCCCC2`, the T/C is 87 % of control (dose: 100.0 mg/kg/injection, schedule: Q01DX001 (ip), vehicle: Klucel (hydroxypropylcellulose) (HPC)); 87 % of control (dose: 200.0 mg/kg/injection, schedule: Q01DX001 (ip), vehicle: Klucel (hydroxypropylcellulose) (HPC)); 87 % of control (dose: 400.0 mg/kg/injection, schedule: Q01DX001 (ip), vehicle: Klucel (hydroxypropylcellulose) (HPC)).
As for `COCC(O)Cn1ccnc1[N+](=O)[O-]` (centres undefined), the T/C is, setting by setting: (dose: 12.5 mg/kg/injection, schedule: Q01DX009 (ip), vehicle: suspension in saline) 102 % of control; under setting [8], 100 % of control; (dose: 25.0 mg/kg/injection, schedule: Q01DX009 (ip), vehicle: suspension in saline) 104 % of control; under setting [9], 101 % of control; (dose: 50.0 mg/kg/injection, schedule: Q01DX009 (ip), vehicle: suspension in saline) 104 % of control; under setting [10], 103 % of control. The T/C is 107 % of control (dose: 100.0 mg/kg/injection, schedule: Q01DX009 (ip), vehicle: suspension in saline); 97 % of control under setting [11]; 104 % of control (dose: 200.0 mg/kg/injection, schedule: Q01DX009 (ip), vehicle: suspension in saline); 103 % of control (dose: 200.0 mg/kg/injection, schedule: Q01DX009 (ip), vehicle: water); 96 % of control (dose: 400.0 mg/kg/injection, schedule: Q01DX009 (ip), vehicle: suspension in saline); 101 % of control (dose: 400.0 mg/kg/injection, schedule: Q01DX009 (ip), vehicle: water).
On to `Nc1nc2c(ncn2C2OC(CO)C(O)C2O)c(=O)[nH]1.Nc1nc2c(ncn2C2OC(CO)C(O)C2O)c(=O)[nH]1.[NH2-].[NH2-].[Pt+2]` (centres undefined), for which the T/C runs as follows: (dose: 6.25 mg/kg/injection, schedule: Q01DX009 (ip), vehicle: water) 102 % of control and 106 % of control; under setting [8], 106 % of control and 112 % of control; under setting [9], 113 % of control and 124 % of control; under setting [10], 113 % of control; under setting [11], 123 % of control.
As to `CC1=C(N2CC2)C(=O)C2=C(C1=O)N1CC3C(N3C)C1(O)C2COC(N)=O` (centres undefined), the T/C reads like this: (dose: 3.5 mg/kg/injection, schedule: Q01DX001 (ip), vehicle: carboxymethylcellulose (CMC)) 122 % of control; (dose: 5.25 mg/kg/injection, schedule: Q01DX001 (ip), vehicle: carboxymethylcellulose (CMC)) 151 % of control; (dose: 7.0 mg/kg/injection, schedule: Q01DX001 (ip), vehicle: carboxymethylcellulose (CMC)) 119 % of control.
For `C[S+](C)(=O)/C=C(\[O-])Nc1ccc(Cl)c(Cl)c1`, the T/C is, setting by setting: under setting [4], 103 % of control; under setting [5], 90 % of control; under setting [6], 91 % of control.
Turning to `Cc1ccc(S(N)(=O)=O)cc1`, the T/C reads like this: under setting [1], 94 % of control; under setting [2], 97 % of control; under setting [3], 102 % of control.
Turning to `Cn1nc(NC=O)c(C#N)c1C#N`, the T/C runs as follows: (dose: 37.5 mg/kg/injection, schedule: Q04DX002 (ip), vehicle: saline with Tween-80) 102 % of control; (dose: 75.0 mg/kg/injection, schedule: Q04DX002 (ip), vehicle: saline with Tween-80) 102 % of control; (dose: 150.0 mg/kg/injection, schedule: Q04DX002 (ip), vehicle: saline with Tween-80) 98 % of control.
Consider `CS(=O)(=O)CC1C2CCC(CC2)C1CS(C)(=O)=O` (centres undefined), for which the T/C is 93 % of control under setting [7]; 106 % of control (dose: 200.0 mg/kg/injection, schedule: Q01DX001 (ip), vehicle: saline with Tween-80); 92 % of control (dose: 400.0 mg/kg/injection, schedule: Q01DX001 (ip), vehicle: saline with Tween-80).
`Cc1cc(-c2nnc(-c3ccc(O)c(C)c3)nn2)ccc1O`: the T/C by setting is: under setting [4], 97 % of control; under setting [5], 89 % of control; under setting [6], 92 % of control.
In the case of `OC1(O)CCN(Cc2ccccc2)CC1`, the T/C is 94 % of control (dose: 100.0 mg/kg/injection, schedule: Q04DX003 (ip), vehicle: acetone); 96 % of control (dose: 200.0 mg/kg/injection, schedule: Q04DX003 (ip), vehicle: acetone); 94 % of control (dose: 400.0 mg/kg/injection, schedule: Q04DX003 (ip), vehicle: acetone).
`O=C(COc1ccc(Cl)c(Cl)c1)NCc1ccc(Cl)cc1`: the T/C runs as follows: under setting [4], 97 % of control; under setting [5], 95 % of control; under setting [6], 93 % of control.
With `O=C(c1ccccc1)c1cccc(C(Br)Br)c1`, the T/C reads like this: under setting [1], 95 % of control; under setting [2], 93 % of control; under setting [3], 101 % of control.
As for `c1ccc2nc(NCCSSCCNc3cnc4ccccc4n3)cnc2c1`, the T/C (dose: 100.0 mg/kg/injection, schedule: Q01DX009 (ip), vehicle: saline sonified) is 92 % of control; the T/C under setting [4] is 94 % of control; the T/C (dose: 200.0 mg/kg/injection, schedule: Q01DX009 (ip), vehicle: saline sonified) is 93 % of control; the T/C under setting [5] is 101 % of control; the T/C (dose: 400.0 mg/kg/injection, schedule: Q01DX009 (ip), vehicle: saline sonified) is 87 % of control; the T/C under setting [6] is 96 % of control.
As for `CCOc1cc(C(F)(F)F)nc2c3c(cc(OC)c12)CCCN3CC`, the T/C under setting [1] was 98 % of control and the T/C under setting [3] was 90 % of control.
